Laboratory results reported in ChEMBL document CHEMBL1127718, “Quinoline-4-carboxylic acids as angiotensin II receptor antagonists” (Bioorg Med Chem Lett, 1994).

How the values were obtained:
[1] = biological target: T1, Type-1 angiotensin II receptor B (Rattus norvegicus, UniProt P29089); assay: Inhibition of [125I]Sar1,Ile8 angiotensin II binding to Angiotensin II receptor type 1 in rat adrenocortical membrane; assay type: cell membranes
T1 sequence (P29089 whole entry): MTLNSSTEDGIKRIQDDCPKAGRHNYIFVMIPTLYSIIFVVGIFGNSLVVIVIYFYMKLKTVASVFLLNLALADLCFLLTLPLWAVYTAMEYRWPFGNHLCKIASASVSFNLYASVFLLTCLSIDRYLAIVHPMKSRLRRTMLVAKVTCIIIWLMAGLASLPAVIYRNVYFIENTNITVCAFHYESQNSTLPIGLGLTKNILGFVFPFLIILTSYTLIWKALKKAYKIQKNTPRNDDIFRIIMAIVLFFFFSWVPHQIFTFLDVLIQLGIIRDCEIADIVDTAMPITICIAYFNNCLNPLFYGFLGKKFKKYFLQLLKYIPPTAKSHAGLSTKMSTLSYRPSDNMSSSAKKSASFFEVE

[2] = species on record: Oryctolagus cuniculus; assay: In vitro functional antagonism was determined by ability of a single concentration of compound to block AII induced contractions in rabbit aortic smooth muscle strip; conditions: Aorta

Ki [1] [nM]	SMILES	Kb [2] [nM]
1300	Cc1cccc2c(C(=O)O)c(Oc3ccc(-c4ccccc4-c4nnn[nH]4)cc3)c(C3CC3)nc12	8.3
12	Cc1cccc2nc(C3CC3)c(Oc3ccc(-c4ccccc4-c4nnn[nH]4)cc3)c(C(=O)O)c12	0.4
2.1	O=C(O)c1c(Oc2ccc(-c3ccccc3-c3nnn[nH]3)cc2)c(C2CC2)nc2cccnc12	0.67
2.9	O=C(O)c1c(Oc2ccc(-c3ccccc3-c3nn[nH]n3)cc2)c(C2CC2)nc2ccccc12	0.061
3.2	Cc1nc2ccccc2c(C(=O)O)c1Oc1ccc(-c2ccccc2-c2nn[nH]n2)cc1	1.1
4.6	O=C(O)c1c(Oc2ccc(-c3ccccc3-c3nnn[nH]3)cc2)c(C2CC2)nc2ncccc12	0.76
120	O=C(O)c1cccc2nc(C3CC3)c(Oc3ccc(-c4ccccc4-c4nn[nH]n4)cc3)c(C(=O)O)c12	2
5.9	CCc1nc2ccccc2c(C(=O)O)c1Oc1ccc(-c2ccccc2-c2nn[nH]n2)cc1	0.12
14	O=C(O)c1c(Oc2ccc(-c3ccccc3-c3nnn[nH]3)cc2)c(C2CC2)nc2ccc(F)cc12	0.61
3.4	CCCc1nc2ccccc2c(C(=O)O)c1Oc1ccc(-c2ccccc2-c2nnn[nH]2)cc1	0.091
33	COc1ccc2nc(C3CC3)c(Oc3ccc(-c4ccccc4-c4nn[nH]n4)cc3)c(C(=O)O)c2c1	0.2
32	O=C(O)c1c(Oc2ccc(-c3ccccc3-c3nn[nH]n3)cc2)c(C2CC2)nc2cc(Cl)ccc12	0.18
